How the values were obtained:
[1] = tested on: femoral condyle articular cartilage; assay: cartilage deficiency model, femoral condyle articular cartilage organ culture; design: species or system rat
Protocol: (§1) The cartilage deficiency model was prepared from a femoral condyle articular cartilage collected from a rat of 5 weeks of age, by cutting the cartilage layer alone such that damage is not given to the subchondral bone. The femur was soaked in the DMEM/Ham's F12 medium (contains 5 μM indometacin) and cultured for 21 days in the presence (treated group) or absence (control group) of the selective EP agonist described in Example 2 (10 μM or 1 μM). Area of the newly formed cartilage tissue was measured using Image-Pro Plus software (mfd. by Planetron) and calculated as an area ratio with the untreated lateral joint face.
(§2) The formalin-fixed sections were prepared on the 0th day, 7th day, 14th day and 21st day starting from the commencement of tissue culturing described in Example 8. Each section was decalcified with EDTA (10% w/v) for 7 days and then sliced into a section of 4 μm in thickness. The hematoxylin-eosin staining and alcian blue staining were carried out by the aforementioned method.

MMA2 chondrocyte strain = assay: intracellular cAMP concentration (cAMP assay kit); type: cell-based, mouse; details: 12 hours with agonist
Protocol: Cartilage tissues of a femur and the shinbone collected from a p53 defective mouse of 4 weeks of age (Tukada, T., Oncogene, 1992, vol. 8, pp. 3313-3322) were cut into pieces, treated with 0.1% collagenase and then cultured (culture conditions; 5% CO2, 37° C., under humidification, hereinafter, this was carried out under the same conditions) using DMEM/Ham's F12 (1:1) medium (contains 10% fetal bovine serum (FBS) and antibiotics (to be referred to as DMEM/Ham's F12 medium hereinafter)). By carrying out dilution sub-culturing from the cell group under a 80 to 90% confluent state, a chondrocyte strain MMA2 recognized by an international deposition number FERM BP-10029 was isolated. […]
Culturing of each chondrocyte was started at a cell density of 1×10^4 cells/24 well culture dish, and 2 hours thereafter, each of the selective EP agonists shown in Example 2 was added thereto to continue the culturing for additional 12 hours. The intracellular cAMP concentration was measured using a cAMP assay kit (Cayman Chemical Company) and in accordance with the instructions attached to the kit, using, as a sample, lysed supernatant of the cell prepared by lysing the same with a cell lysis liquid (0.1 mM Tris/HCl buffer, pH 7.2).

[2] = tested on: rat femur head articular cartilage; assay: PCNA immunohistological staining of organ-cultured articular cartilage; details: 1 μM, after 7 days of organ culture
Protocol: as §1, §2
Regarding the PCNA immuno histological staining, the prepared slide was treated with 3% hydrogen peroxide and then subjected to a blocking treatment using a blocking solution (mfd. by Dako Cytomation). […] After washing, the reaction with a substrate, 3,3′-diaminobenzidine tetrahydrochloride (mfd. by Dako Cytomation), was detected. […]

[3] = tested on: human primary-cultured chondrocyte; assay: cell growth activity, BrdU incorporation assay; type: cell-based; details: 1 μM overnight, then 8 hours with BrdU; normal cartilage and RA articular cartilage derived cells
Protocol: Human primary-cultured chondrocytes were isolated from knee articular cartilages of three patients who underwent above-knee amputation due to femur osteosarcoma. In addition, other human primary-cultured chondrocytes were obtained from rheumatic arthritis patients who underwent artificial hip joint replacement. Isolation operation of these cells was also carried out by the method described in the above.
The cell growth activity was measured by a BrdU incorporation assay using BrU labeling, detection kit (mfd. by Boehringer Mannheim GmbH).
Culturing of each chondrocyte was started at a cell density of 2×10^3 cells/96 well culture dish, and after adhesion of the cells, the selective EP agonist described in Example 2 (1 μM) was added thereto to start the culturing at 37° C. overnight. Subsequently, the culturing was continued for 8 hours together with BrdU (final concentration 110 μM), and the labeled nucleus was detected by the method of the instructions attached to the kit.

chondrocyte strain = assay: gene expression profile by cDNA microarray, reconfirmed by RT-PCR; type: cell-based, mouse; details: 1 μM, 72 hours, medium with 5 μM indometacin
Protocol: Culturing of each chondrocyte was started at a cell density of 3×10^5 cells/100 mm culture dish, and 2 days and 21 days thereafter, respective total RNA samples were prepared using Trizol Reagent (mfd. by Life Technologies) in accordance with the instructions attached thereto. The RT reaction was carried out in accordance with the instructions attached to RT-PCR kit (mfd. by Life Technologies) using 1 μg of the thus prepared total RNA. The PCR reaction was carried out in 25 μl of a reaction liquid (20 μmol sense primer, 20 μmol antisense primer, 25 mM MgCl2, 0.2 mM dNTP, 1 unit γTaq polymerase (mfd. by TOYOBO., LTD.)) containing 1 μl of the RT reaction liquid. The PCR reaction (in the reaction, starting reaction was carried out at 94° C. for 5 minutes, and then the following reaction (denaturation reaction at 94° C. for 1 minute, annealing reaction at 72° C. for 1 minute and elongation reaction at 72° C. for 7 minutes) was carried out 35 times) was carried out using Gene Amp 9700 (mfd. by PE Applied Biosystem). Sequences of the primers used in the above RT-PCR are shown in the following.
Gene expression profile of chondrocytes was analyzed by a custom-made cDNA microarray system. This system was prepared by spotting 78 species of bone- and cartilage-related mouse genes and 900 species of mouse genes (InteliGene CHIP ver. 1) (mfd. by Takara Bio INC.) on a glass slide.
A chondrocyte was cultured for 72 hours in DMEM/F12 medium (contains 5 μM indometacin) in the presence or absence of each of the selective EP agonists shown in Example 2 (1 μM), and respective total RNA samples were extracted. A fluorescent cDNA probe was synthesized using 20 μg of each of the total RNA samples as the template, and using 400 U of M-MLV reverse transcriptase and Cy3 or Cy5-dUTP (Amersham Biosciences).
Each cDNA probe dissolved in a reaction buffer (6×SSC/0.2% SDS, 5×Denhardt's solution, 0.1 mg/ml denatured salmon sperm DNA) was allowed to hybridize with the spots on the glass slide at 65° C. overnight. The slide was washed with a washing liquid (2×SSC/0.2% SDS) twice at 55° C. for 5 minutes and then once at 65° C. for 5 minutes, and finally washed with 0.05×SSC solution at room temperature for 1 minute. The hybridization signal was visualized by Affymetrix 418 Array Scanner (mfd. by Affymetrix), and analyzed by ImaGene software (mfd. by BioDiscovery). Regarding the expressed genes in which changes were confirmed, reconfirmation was carried out by the RT-PCR method.

SMILES | ratio of the regenerated tissue (area ratio with the untreated lateral joint face) ([1]; 1 μM or 10 μM, cultured for 21 days) | tissue regeneration image (hematoxylin-eosin, alcian blue staining) ([1]; treated group against control group, 21 days) | intracellular cAMP (MMA2 chondrocyte strain) | PCNA staining affinity [2] | DNA synthesis (BrdU incorporation) [3] | expression of fibronectin, integrin, cyclin D1, MAZ, AP2α and 14-3-3γ genes (chondrocyte strain) | expression of osteopontin and MGP genes (chondrocyte strain)
C=CCC1(C(O)C/C=C/[C@@H]2[C@@H](C/C=C\CCCC(=O)O)[C@H](Cl)C[C@H]2O)CCC1 (stereo partly drawn) [EP2 agonist, (5Z,9β,11α,13E)-17,17-propano-11,16-dihydroxy-9-chloroprostar-5,13,19-trienoic acid] | increased periodically and concentration-dependently | a regeneration image having a staining affinity of similar to that of a remaining existing cartilage (right side) was observed | increased concentration-dependently | distinctively increased | DNA synthesis accelerating effect | stimulated | reduced
CCCCC[C@@H](/C=C/[C@H]1[C@H](OC)CC(=O)[C@@H]1C/C=C\CCCC(=O)O)OC [EP3 agonist, 11α,15α-dimethoxy-9-oxoprosta-5Z,13E-dienoic acid] |  |  |  | distinctively increased |  | stimulated | reduced
